Target: T1, STK32B (YANK2) (Homo sapiens, UniProt Q9NY57)
T1 construct: purchased Thermo Fisher Scientific (Life Technologies) SelectScreen
Assay: SelectScreen LanthaScreen
Assay type: binding
Settings: read-out: % displacement
Summary of the method: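 SelectScreen broad panel; activity (Z'LYTE, Adapta) plus binding formats. ATP: Km app for CSF1R Z'LYTE; 10 for CAMK1 Adapta. Readout = % per kinase.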

T1 sequence (Q9NY57 whole entry): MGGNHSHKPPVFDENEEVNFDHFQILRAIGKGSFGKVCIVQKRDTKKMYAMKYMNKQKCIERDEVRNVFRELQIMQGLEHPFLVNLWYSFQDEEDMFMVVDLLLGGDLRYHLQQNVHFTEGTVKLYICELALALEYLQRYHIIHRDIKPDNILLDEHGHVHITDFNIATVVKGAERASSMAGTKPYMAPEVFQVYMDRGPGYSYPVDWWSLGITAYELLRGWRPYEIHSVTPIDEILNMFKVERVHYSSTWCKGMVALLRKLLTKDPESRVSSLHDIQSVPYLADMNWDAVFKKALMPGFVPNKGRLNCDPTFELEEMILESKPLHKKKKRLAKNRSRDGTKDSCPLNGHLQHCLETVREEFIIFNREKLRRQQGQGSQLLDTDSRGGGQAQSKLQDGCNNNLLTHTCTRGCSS

With CN(C(=O)CN1CCOCC1)c1ccc2sc3c(-c4cccc5c(=O)cc(N6CC7CCC(C6)O7)oc45)cccc3c2c1 [NU5455] the inhibition at 1 µM was -1.4%.

Reference: PMC6934184, “Selective DNA-PKcs inhibition extends the therapeutic index of localized radiotherapy and chemotherapy” (The Journal of Clinical Investigation, 2019)
